Source: ChEMBL document CHEMBL4346725, “Molecular design and anticancer activities of small-molecule monopolar spindle 1 inhibitors: A Medicinal chemistry perspective” (Eur J Med Chem, 2019)
pIC50, pKi: −log10 of the molar value. Blank lines part the entries; values can stand above or below the compound they belong to.

Columns and labels:
[1] = target: T1, Dual specificity protein kinase TTK (Homo sapiens, UniProt P33981); test: Inhibition of MPS1 (unknown origin)
T1 sequence (P33981 whole entry): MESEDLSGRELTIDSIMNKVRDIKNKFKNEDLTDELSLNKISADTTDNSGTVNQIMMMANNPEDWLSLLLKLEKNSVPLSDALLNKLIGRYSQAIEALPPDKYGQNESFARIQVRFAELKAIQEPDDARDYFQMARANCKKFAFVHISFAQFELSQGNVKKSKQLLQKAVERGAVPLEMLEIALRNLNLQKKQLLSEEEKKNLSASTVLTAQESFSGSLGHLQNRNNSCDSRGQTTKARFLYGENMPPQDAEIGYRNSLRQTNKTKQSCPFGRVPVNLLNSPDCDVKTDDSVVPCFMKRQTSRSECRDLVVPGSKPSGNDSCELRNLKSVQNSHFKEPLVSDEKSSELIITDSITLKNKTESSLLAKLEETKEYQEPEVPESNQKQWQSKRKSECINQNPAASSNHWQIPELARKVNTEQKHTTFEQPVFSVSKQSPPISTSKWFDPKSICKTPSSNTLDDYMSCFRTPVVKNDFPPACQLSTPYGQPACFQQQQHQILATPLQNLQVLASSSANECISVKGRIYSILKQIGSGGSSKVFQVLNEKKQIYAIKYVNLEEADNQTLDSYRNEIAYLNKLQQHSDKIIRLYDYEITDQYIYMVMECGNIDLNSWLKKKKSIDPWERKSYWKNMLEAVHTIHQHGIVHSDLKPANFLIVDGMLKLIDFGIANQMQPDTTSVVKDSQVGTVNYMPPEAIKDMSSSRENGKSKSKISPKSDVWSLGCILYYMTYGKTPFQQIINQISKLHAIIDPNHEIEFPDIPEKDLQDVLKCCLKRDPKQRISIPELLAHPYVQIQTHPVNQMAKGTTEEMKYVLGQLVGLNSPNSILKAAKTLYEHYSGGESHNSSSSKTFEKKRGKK

[2] = target: T1, Dual specificity protein kinase TTK; test: Inhibition of MPS1 (510 to 857 residues) catalytic domain (unknown origin) expressed in Escherichia coli after 15 mins by mass-spectrometry analysis
[3] = Half life in mouse at 5 mg/kg, ip; format: ADME, organism-based; details: in vivo
[4] = Cmax in mouse at 5 mg/kg, ip; format: ADME, organism-based; parameters: dose 5 mg/kg, route intraperitoneal; details: in vivo
[5] = Half life in mouse at 5 mg/kg, iv; format: ADME, organism-based; details: in vivo
[6] = Cmax in mouse at 5 mg/kg, iv; format: ADME, organism-based; parameters: dose 5 mg/kg, route intravenous; details: in vivo
[7] = Half life in mouse at 5 mg/kg, po; format: ADME, organism-based; details: in vivo
[8] = Cmax in mouse at 5 mg/kg, po; format: ADME, organism-based; parameters: dose 5 mg/kg, route oral; details: in vivo
[9] = Oral bioavailability in mouse at 5 mg/kg; format: ADME, organism-based; details: in vivo
[10] = Bioavailability in mouse at 5 mg/kg, ip; format: ADME, organism-based; details: in vivo
[11] = target: Focal adhesion kinase 1 (Homo sapiens) (UniProt Q05397); test: Inhibition of FAK (unknown origin) relative to control; details: concentration not given here
[12] = target: Mitogen-activated protein kinase 8 (Homo sapiens) (UniProt P45983); test: Inhibition of JNK1 (unknown origin) relative to control; details: concentration not given here
[13] = target: Mast/stem cell growth factor receptor Kit (Homo sapiens) (UniProt P10721); test: Inhibition of KIT (unknown origin) relative to control; details: concentration not given here
[14] = target: Mitogen-activated protein kinase 9 (Homo sapiens) (UniProt P45984); test: Inhibition of JNK2 (unknown origin) relative to control; details: concentration not given here
[15] = target: T1, Dual specificity protein kinase TTK; test: Inhibition of glioblastoma patient derived MPS1
MDA-MB-231 = test: Antiproliferative activity against human MDA-MB-231 cells after 7 days by cell titer-glo assay; format: functional, cell-based; details: MDA-MB-231, 168 h
A549 = test: animal or person; details: Mus musculus, A549, po, read-out: TGI
[16] = Half life in mouse xenografted with human A2780 cells at 90 mg/kg, po daily administered for 7 consecutive days; format: ADME, organism-based; details: in vivo
[17] = Oral bioavailability in mouse xenografted with human A2780 cells at 90 mg/kg daily administered for 7 consecutive days; format: ADME, organism-based; details: in vivo
A2780 = test: Antitumor activity against human A2780 cells xenografted in mouse assessed as tumor growth inhibition at 90 mg/kg, po daily administered for 7 consecutive days relative to control; format: functional; details: read-out: TGI
Mus musculus = test: In vivo inhibition of MPS1 in mouse xenografted with human HCT116 cells at 100 mg/kg, po after 24 hrs by LC-MS analysis relative to control; format: functional; details: HCT-116, po
in vivo = details: mouse, ip, 150 mg/kg
HCT-116 [18] = test: animal or person; details: Mus musculus, HCT-116, ip, read-out: TGI
HCT-116 [19] = test: animal or person; details: Mus musculus, HCT-116, ip, 96 h, read-out: TGI
COLO 205 = test: animal or person; details: Mus musculus, COLO 205, ip, 96 h, read-out: TGI

Chain of Focal adhesion kinase 1 (Homo sapiens) (Q05397 2-1052 limits assumed): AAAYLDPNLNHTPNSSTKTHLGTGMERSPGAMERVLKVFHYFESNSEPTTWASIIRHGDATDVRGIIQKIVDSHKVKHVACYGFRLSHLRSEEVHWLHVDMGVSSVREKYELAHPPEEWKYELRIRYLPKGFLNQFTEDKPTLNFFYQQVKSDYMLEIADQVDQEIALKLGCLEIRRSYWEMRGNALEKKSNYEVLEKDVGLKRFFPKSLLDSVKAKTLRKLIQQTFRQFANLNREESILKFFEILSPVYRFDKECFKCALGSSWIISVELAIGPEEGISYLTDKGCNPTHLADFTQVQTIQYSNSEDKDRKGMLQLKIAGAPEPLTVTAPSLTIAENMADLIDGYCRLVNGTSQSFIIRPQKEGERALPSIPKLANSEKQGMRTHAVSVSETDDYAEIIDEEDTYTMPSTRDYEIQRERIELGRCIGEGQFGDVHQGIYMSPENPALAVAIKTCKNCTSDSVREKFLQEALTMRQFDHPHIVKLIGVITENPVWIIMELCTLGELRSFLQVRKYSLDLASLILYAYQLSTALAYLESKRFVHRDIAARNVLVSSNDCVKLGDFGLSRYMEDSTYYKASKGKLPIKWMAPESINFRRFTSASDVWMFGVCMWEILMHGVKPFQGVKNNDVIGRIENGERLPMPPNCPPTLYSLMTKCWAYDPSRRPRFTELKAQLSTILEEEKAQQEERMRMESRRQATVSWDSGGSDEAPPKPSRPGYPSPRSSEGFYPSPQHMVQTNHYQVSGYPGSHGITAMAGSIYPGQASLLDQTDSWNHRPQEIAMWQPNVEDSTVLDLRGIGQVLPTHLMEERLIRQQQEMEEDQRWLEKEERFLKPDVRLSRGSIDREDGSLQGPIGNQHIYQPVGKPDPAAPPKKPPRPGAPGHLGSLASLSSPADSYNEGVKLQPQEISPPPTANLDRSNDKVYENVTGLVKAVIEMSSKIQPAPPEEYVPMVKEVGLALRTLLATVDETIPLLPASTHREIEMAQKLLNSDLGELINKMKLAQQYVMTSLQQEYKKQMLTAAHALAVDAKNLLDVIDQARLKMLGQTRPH
Chain of Mitogen-activated protein kinase 8 (Homo sapiens) (P45983 whole entry): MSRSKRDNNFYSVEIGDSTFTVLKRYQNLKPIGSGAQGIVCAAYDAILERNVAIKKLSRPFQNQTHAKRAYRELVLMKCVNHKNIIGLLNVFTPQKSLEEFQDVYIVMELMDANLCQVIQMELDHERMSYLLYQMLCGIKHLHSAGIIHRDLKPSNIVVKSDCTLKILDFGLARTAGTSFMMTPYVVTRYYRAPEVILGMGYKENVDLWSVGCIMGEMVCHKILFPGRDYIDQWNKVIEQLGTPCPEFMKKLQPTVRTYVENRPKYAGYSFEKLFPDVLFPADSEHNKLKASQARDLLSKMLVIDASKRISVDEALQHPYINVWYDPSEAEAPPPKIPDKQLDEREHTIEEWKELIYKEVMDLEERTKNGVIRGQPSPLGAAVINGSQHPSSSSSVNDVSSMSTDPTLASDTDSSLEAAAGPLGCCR
Chain of Mitogen-activated protein kinase 9 (Homo sapiens) (P45984 whole entry, looked up): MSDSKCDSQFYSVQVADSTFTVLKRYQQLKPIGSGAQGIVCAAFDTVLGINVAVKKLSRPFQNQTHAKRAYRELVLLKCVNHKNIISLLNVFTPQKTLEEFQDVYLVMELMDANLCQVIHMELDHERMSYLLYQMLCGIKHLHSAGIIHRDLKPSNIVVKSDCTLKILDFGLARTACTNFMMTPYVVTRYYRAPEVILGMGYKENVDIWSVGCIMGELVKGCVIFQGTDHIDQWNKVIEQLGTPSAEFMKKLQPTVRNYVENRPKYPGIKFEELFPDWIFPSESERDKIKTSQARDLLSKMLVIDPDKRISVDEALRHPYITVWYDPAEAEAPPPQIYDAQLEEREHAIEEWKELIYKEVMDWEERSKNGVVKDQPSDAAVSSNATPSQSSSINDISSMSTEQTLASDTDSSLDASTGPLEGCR
Chain of Mast/stem cell growth factor receptor Kit (Homo sapiens) (P10721 whole entry): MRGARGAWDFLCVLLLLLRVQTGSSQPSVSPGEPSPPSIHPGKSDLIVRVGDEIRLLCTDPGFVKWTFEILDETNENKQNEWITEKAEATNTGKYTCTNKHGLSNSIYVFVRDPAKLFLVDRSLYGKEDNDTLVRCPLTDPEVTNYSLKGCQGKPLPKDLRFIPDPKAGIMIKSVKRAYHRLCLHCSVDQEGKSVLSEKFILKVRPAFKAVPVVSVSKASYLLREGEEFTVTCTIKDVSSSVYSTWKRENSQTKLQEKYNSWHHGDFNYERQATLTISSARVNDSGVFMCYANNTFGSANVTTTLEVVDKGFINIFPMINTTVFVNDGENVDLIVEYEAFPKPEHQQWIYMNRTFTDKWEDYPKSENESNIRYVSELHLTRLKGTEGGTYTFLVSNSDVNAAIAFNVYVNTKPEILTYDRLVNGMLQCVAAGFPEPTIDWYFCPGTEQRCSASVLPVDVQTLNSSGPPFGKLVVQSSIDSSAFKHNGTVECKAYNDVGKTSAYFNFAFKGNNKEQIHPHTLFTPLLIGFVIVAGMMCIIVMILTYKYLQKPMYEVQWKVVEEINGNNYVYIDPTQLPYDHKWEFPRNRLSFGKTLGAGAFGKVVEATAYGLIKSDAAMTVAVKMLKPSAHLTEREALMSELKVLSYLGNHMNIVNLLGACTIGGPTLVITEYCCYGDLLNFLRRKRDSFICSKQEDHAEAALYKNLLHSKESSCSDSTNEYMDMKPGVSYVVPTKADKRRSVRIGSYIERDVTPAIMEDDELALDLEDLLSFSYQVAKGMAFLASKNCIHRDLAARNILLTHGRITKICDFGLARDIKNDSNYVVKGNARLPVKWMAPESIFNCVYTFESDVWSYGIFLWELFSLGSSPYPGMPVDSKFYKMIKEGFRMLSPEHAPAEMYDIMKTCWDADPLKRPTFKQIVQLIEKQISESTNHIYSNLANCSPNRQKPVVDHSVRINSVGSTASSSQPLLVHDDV

pIC50 [1]: 7.01
SMILES: O=C1c2ccccc2-c2n[nH]c3cccc1c23

pIC50 [2]: 8.26
pKi [2]: > 9.30
SMILES: Cc1nc(N2CCOCC2)ccc1Nc1nc(NC(C)(C)CO)c2c(C#N)c[nH]c2n1

half-life [3]: 3.4 h
Cmax [4]: 629 nM
half-life [5]: 2.9 h
Cmax [6]: 3060 nM
half-life [7]: 3.9 h
Cmax [8]: 188 nM
bioavailability [9]: 45.2%
bioavailability [10]: 90.3%
SMILES: CCc1cccc(CC)c1NC(=O)c1ccn2c1CCc1cnc(Nc3ccc(N4CCN(C)CC4)cc3OC)nc1-2

inhibition [11]: > 40%
inhibition [12]: > 40%
inhibition [13]: > 40%
inhibition [14]: > 40%
SMILES: COc1cc(OC2CCN(C)CC2)ccc1Nc1ncc2c(n1)n(C1CCCC1)c(=O)n2C

pIC50 [15]: 7.30
SMILES: COc1cc(N2CCC(O)CC2)ccc1Nc1nc(Nc2ccccc2S(=O)(=O)C(C)C)c2nc[nH]c2n1

pIC50 [2]: 8.60
pKi [2]: > 9.30
pIC50 (MDA-MB-231): 8.22 to 8.70
SMILES: Cc1nc(N2CCOCC2)ccc1Nc1nc(NC2CCOCC2)c2c(C#N)c[nH]c2n1

SMILES: CC(C)(C)Nc1nc(Nc2ccc(C(N)=O)cc2)cc(N)c1C#N
inhibition in vivo at 100 mg/kg (A549): 47%

pIC50 [1]: 8.05
SMILES: CC(C)CNc1nc(-c2cccc3ncccc23)cn2c(-c3ccc(C(=O)NC4CC4)cc3)cnc12

half-life [16]: 8 h
bioavailability [17]: 37.9%
SMILES: CCc1cccc(CC)c1NC(=O)c1nn(C)c2c1CCc1cnc(Nc3ccc(C(=O)NC4CCN(C)CC4)cc3OC(F)(F)F)nc1-2
inhibition in vivo at 90 mg/kg (A2780): 53%

SMILES: COc1cc(-c2cnn(C)c2)ccc1Nc1ncc2ccnc(N[C@@H](C)C(C)(C)C)c2n1
inhibition in vivo at 100 mg/kg (Mus musculus): > 80%

SMILES: c1nc2nc(Nc3ccc(N4CCOCC4)cc3)nc(NC3CCCCC3)c2[nH]1 [REVERSINE]
AUC at 96 h (in vivo): 0.786 ng·h/mL
inhibition in vivo at 30 mg/kg (HCT-116 [18]): 49%
inhibition in vivo at 150 mg/kg (HCT-116 [19]): 74%
inhibition in vivo at 150 mg/kg (COLO 205): 63%
